Publication PMC5712521, “Dendrogenin A drives LXR to trigger lethal autophagy in cancers” (Nature Communications, 2017)

How the values were obtained:
WM35 cells = assay: Clonogenicity inhibition; assay type: cell-based; settings: Homo sapiens; WM35 (H); 72 h; read-out: Clono IC50
Excerpt: (§1) Supplementary Fig. 1. a DDA inhibited m elanom a colony form ation. Melanom a cells were […]
(§2) a 0.5% solution of crystal violet in water and analyzed by microscopy. Images are representative of 5 independent experiments. b Evaluation of DDA-induced cytotoxicity (cytotox) and clonogenicity (clono) inhibition in a subset of human (H) and mouse (M) m elanom a cell lines. T he BRaf status in m elanom a cells lines is shown. […]

A375 cells = assay: Clonogenicity inhibition; assay type: cell-based; settings: Homo sapiens, A-375; A375 (H); 72 h; read-out: Clono IC50
Excerpt: as §1, §2

WM115 cells = assay: Clonogenicity inhibition; assay type: cell-based; settings: Homo sapiens, WM-115; WM115 (H); 72 h; read-out: Clono IC50
Excerpt: as §1, §2

SKMEL-2 cells = assay: Clonogenicity inhibition; assay type: cell-based; settings: Homo sapiens, SK-MEL-2; SKMEL-2 (H); 72 h; read-out: Clono IC50
Excerpt: as §1, §2

WM-266-4 cells = assay: Clonogenicity inhibition; assay type: cell-based; settings: Homo sapiens; WM-266-4 (H); 72 h; read-out: Clono IC50
Excerpt: as §1, §2

HL60 tumors = assay: Subcutaneous HL60 tumor xenograft; assay type: in vivo, mice
Procedure: Exponentially growing cells were harvested, washed twice in PBS then resuspended in PBS. SKMEL-28, shSKMEL-28 clones (5 × 10^6 cells) and B16F10 (3 × 10^5) cells were injected subcutaneously (s.c.) into the flank of nude mice. HL60, KG1 and shKG1-clones (5 × 10^6) were inoculated s.c. into the flanks of NOD/SCID mice. When tumors were palpable, animals (n = 10–20 mice per group, as indicated) were randomized to receive either DDA (20 mg/kg) intraperitoneally (i.p.) or 40 mg/kg by oral gavage (p.o), once a day, or vehicle solvent for the indicated time. Animals were examined daily and body weights were measured twice a week. In all experiments, tumor volume was determined by direct measurement with a caliper and was calculated using the formula (width^2 × length)/2. At the end of experiments, mice were sacrificed and tumors were excised and divided for intra-tumoral DDA quantification, immunoblotting, or immunohistochemistry analyses. […]
(n=16- 20 mice/group) engrafted with KG1 cells or HL60 cells were treated with DDA (20 mg/kg/day, i.p.) or solvent vehicle (control). Tumor growth was monitored over time and was analyzed for significance using repeated measures ANOVA (***P<0.001). The mean tumor volumes ± SEM are shown. e Average tumor weight at the end of the experiments in d. *P<0.5, **P<0.01, ANOVA. f Mean tumor volumes measured at the end of the experiments for HL60 and KG1 graf ted into NOD/SCID or NMRI-Fo x1 -nude mice treated with DDA (40 mg/kg/day, p.o. or 20 mg/kg/day, i.p.) or solvent vehicle (control) (n=10- 20 mice per group). Values represent the means ± S.E.M. (**P<0.01, ***P<0.001, ANOVA). g Histochemical analysis of the expression of LC3 and P62 in HL60 tumor sections isolated from NOD/SCID mice treated or not with DDA (20 mg/kg/day, i.p.). h Quantification of LC3 punctate cells in shCTRL and shLXRβ KG1 tumors. i Quantification of DDA levels in tumors 4 h after the final administration of DDA. j Box plot of TCGA RNA-seq data from patients with melanoma showing that LXRβ is the predominant LXR isoform expressed. […]

HL60 cells = assay: Immunoblot densitometry; assay type: cell-based, human; settings: 5 µM DDA, 24 h
Procedure: Immunoblotting was carried out as described previously. Proteins were separated on SDS-PAGE gels, electro-transferred onto polyvinylidene difluoride membranes and incubated overnight at 4 °C with the following antibodies: anti-Atg3, anti-Atg5 (D1G9), anti-Atg7 (D12B11), anti-Beclin (D40C5), anti-caspase-3 (Cell Signaling), anti-Bcl-2 (Millipore), anti-Bax (Millipore), anti-LC3 (Sigma-Aldrich), anti-LXRα (SantaCruz), anti-LXRβ (SantaCruz), anti-Nur77 (Active motif), anti-NOR1 (R&D systems), anti-PARP (Cell Signaling), anti-Vps34 (Cell Signaling), or anti-Actin (Millipore). For visualization, an ECL plus kit (Amersham Biosciences) was used, and chemiluminescence was measured by autoradiography (Supplementary Fig. 9). Specific bands were quantified with ImageQuant software. […]
(n=16- 20 mice/group) engrafted with KG1 cells or HL60 cells were treated with DDA (20 mg/kg/day, i.p.) or solvent vehicle (control). Tumor growth was monitored over time and was analyzed for significance using repeated measures ANOVA (***P<0.001). The mean tumor volumes ± SEM are shown. e Average tumor weight at the end of the experiments in d. *P<0.5, **P<0.01, ANOVA. f Mean tumor volumes measured at the end of the experiments for HL60 and KG1 graf ted into NOD/SCID or NMRI-Fo x1 -nude mice treated with DDA (40 mg/kg/day, p.o. or 20 mg/kg/day, i.p.) or solvent vehicle (control) (n=10- 20 mice per group). […]

**Q.** `CC(C)CCC[C@@H](C)[C@H]1CC[C@H]2[C@@H]3C[C@@H](NCCc4cnc[nH]4)[C@@]4(O)C[C@@H](O)CC[C@]4(C)[C@H]3CC[C@]12C` [DDA, Dendrogenin A] was tested. Which IC50 (WM35 cells) did it give?
**A.** Its IC50 is 1400 ± 200 nM.

**Q.** What about the IC50 (A375 cells) of the same compound?
**A.** The IC50 was 1500 ± 300 nM.

**Q.** And the IC50 (WM115 cells)?
**A.** The IC50 was 1500 ± 300 nM.

**Q.** And the IC50 (SKMEL-2 cells)?
**A.** The IC50 was 1400 ± 400 nM.

**Q.** And the IC50 (WM-266-4 cells)?
**A.** The IC50 was 1200 ± 400 nM.

**Q.** What about the “Tumor volume at the end of the experiment” value (“Tumor volume at the end” below) (HL60 tumors; NMRI-Fox1-nude mice, DDA i.p. 20mg/kg/d (control 726±81)) of the same compound?
**A.** Its value is 203±72 mm3.

**Q.** What about the “Tumor volume at the end” value (HL60 tumors; NOD/SCID mice, DDA i.p. 20mg/kg/d (control 2348±204)) of the same compound?
**A.** Its value is 880±101 mm3.

**Q.** And the “Tumor volume at the end” value (HL60 tumors; NOD/SCID mice, DDA p.o. 40mg/kg/d (control 2348±204))?
**A.** Its value is 812±66 mm3.

**Q.** What about the “NOR1 protein, densitometry relative to untreated” value (HL60 cells) of the same compound?
**A.** The value was 1.9.

**Q.** What about the “Nur77 protein, densitometry relative to untreated” value (HL60 cells) of the same compound?
**A.** Its value is 1.8.
